Source: patent publication US20260262643A1, “HERBICIDAL BENZOXAZINES” (FMC CORPORATION, priority 2022, published 2026)

Key:
[1] = tested on: barnyardgrass; assay: Test C preemergence; assay type: in vivo, Echinochloa crusgalli
Summary of the method: (§1)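 Soil-applied (pre) and foliar (post, 1–2 leaf, 2–10 cm) sprays; surfactant-containing non-phytotoxic solvent vehicle; loam/sand substrate. Readout: visual % control at 10 d, greenhouse, versus untreated.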

[2] = tested on: blackgrass; assay: Test C preemergence; assay type: in vivo, Alopecurus myosuroides
Summary of the method: as §1

[3] = tested on: corn; assay: Test C preemergence; assay type: in vivo, Zea mays
Summary of the method: as §1

[4] = tested on: green foxtail; assay: Test C preemergence; assay type: in vivo, Setaria viridis
Summary of the method: as §1

[5] = tested on: kochia; assay: Test C preemergence; assay type: in vivo, Bassia scoparia
Summary of the method: as §1

[6] = tested on: pigweed, palmer; assay: Test C preemergence; assay type: in vivo, Amaranthus palmeri
Summary of the method: as §1

[7] = tested on: ragweed; assay: Test C preemergence; assay type: in vivo, Ambrosia artemisiifolia
Summary of the method: as §1

[8] = tested on: ryegrass, Italian; assay: Test C preemergence; assay type: in vivo, Lolium multiflorum
Summary of the method: as §1

[9] = tested on: soybean; assay: Test C preemergence; assay type: in vivo, Glycine max
Summary of the method: as §1

[10] = tested on: wheat; assay: Test C preemergence; assay type: in vivo, Triticum aestivum
Summary of the method: as §1

[11] = tested on: barnyardgrass; assay: Test C postemergence; assay type: in vivo, Echinochloa crusgalli; details: 10 days, 0 to 100 scale (0 no effect, 100 complete control)
Summary of the method: as §1

[12] = tested on: blackgrass; assay: Test C postemergence; assay type: in vivo, Alopecurus myosuroides; details: 10 days, 0 to 100 scale (0 no effect, 100 complete control)
Summary of the method: as §1

[13] = tested on: corn; assay: Test C postemergence; assay type: in vivo, Zea mays; details: 10 days, 0 to 100 scale (0 no effect, 100 complete control)
Summary of the method: as §1

[14] = tested on: green foxtail; assay: Test C postemergence; assay type: in vivo, Setaria viridis; details: 10 days, 0 to 100 scale (0 no effect, 100 complete control)
Summary of the method: as §1

[15] = tested on: kochia; assay: Test C postemergence; assay type: in vivo, Bassia scoparia; details: 10 days, 0 to 100 scale (0 no effect, 100 complete control)
Summary of the method: as §1

[16] = tested on: oat, wild; assay: Test C postemergence; assay type: in vivo, Avena fatua; details: 10 days, 0 to 100 scale (0 no effect, 100 complete control)
Summary of the method: as §1

[17] = tested on: pigweed, palmer; assay: Test C postemergence; assay type: in vivo, Amaranthus palmeri; details: 10 days, 0 to 100 scale (0 no effect, 100 complete control)
Summary of the method: as §1

[18] = tested on: ragweed; assay: Test C postemergence; assay type: in vivo, Ambrosia artemisiifolia; details: 10 days, 0 to 100 scale (0 no effect, 100 complete control)
Summary of the method: as §1

[19] = tested on: ryegrass, Italian; assay: Test C postemergence; assay type: in vivo, Lolium multiflorum; details: 10 days, 0 to 100 scale (0 no effect, 100 complete control)
Summary of the method: as §1

[20] = tested on: soybean; assay: Test C postemergence; assay type: in vivo, Glycine max; details: 10 days, 0 to 100 scale (0 no effect, 100 complete control)
Summary of the method: as §1

[21] = tested on: wheat; assay: Test C postemergence; assay type: in vivo, Triticum aestivum; details: 10 days, 0 to 100 scale (0 no effect, 100 complete control)
Summary of the method: as §1

[22] = tested on: galium; assay: Test C postemergence; assay type: in vivo, Galium aparine; details: 10 days, 0 to 100 scale (0 no effect, 100 complete control)
Summary of the method: as §1

[23] = tested on: horseweed; assay: Test C postemergence; assay type: in vivo, Erigeron canadensis; details: 10 days, 0 to 100 scale (0 no effect, 100 complete control)
Summary of the method: as §1

[24] = tested on: barnyardgrass; assay: Test D flooded paddy test; assay type: in vivo, Echinochloa crus-galli; details: 250 g ai/ha, applied to paddy water, visual rating after 13 to 14 days, scale 0 to 100 (0 no effect, 100 complete control)
Summary of the method: (§2)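 At the 2-leaf stage, floodwater 3 cm deep received the test compound; that depth persisted throughout. Plants scored visually 13 to 14 days on, 0 (no effect) to 100 (complete control), dash indicating no result.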

[25] = tested on: ducksalad; assay: Test D flooded paddy test; assay type: in vivo, Heteranthera limosa; details: 250 g ai/ha, applied to paddy water, visual rating after 13 to 14 days, scale 0 to 100 (0 no effect, 100 complete control)
Summary of the method: as §2

[26] = tested on: rice; assay: Test D flooded paddy test; assay type: in vivo, Oryza sativa; details: 250 g ai/ha, applied to paddy water, visual rating after 13 to 14 days, scale 0 to 100 (0 no effect, 100 complete control)
Summary of the method: as §2

[27] = tested on: sedge, umbrella; assay: Test D flooded paddy test; assay type: in vivo, Cyperus difformis; details: 250 g ai/ha, applied to paddy water, visual rating after 13 to 14 days, scale 0 to 100 (0 no effect, 100 complete control)
Summary of the method: as §2

[28] = 500 g ai/ha, preemergence, 0 to 100 scale (0 no effect, 100 complete control)
[29] = Preemergence, 125 g ai/ha, 0 to 100 scale, 0 no effect, 100 complete control

SMILES: C[C@H]1CN(C(=O)c2cccc(-n3cnc(OS(C)(=O)=O)n3)c2)c2cccc(Cl)c2O1 [Compound 356]
- Barnyardgrass plant response rating [1, 28]: 50
- Plant response rating, Barnyardgrass [1, 29]: 10
- Blackgrass plant response rating [2, 28]: 20
- Plant response rating, Blackgrass [2, 29]: 0
- Corn plant response rating [3, 28]: 10
- Plant response rating, Corn [3, 29]: 0
- Foxtail, Green plant response rating [4, 28]: 90
- Plant response rating, Foxtail, Green [4, 29]: 30
- Kochia plant response rating [5, 28]: 90
- Plant response rating, Kochia [5, 29]: 0
- Pigweed, Palmer plant response rating [6, 28]: 100
- Plant response rating, Pigweed, Palmer [6, 29]: 40
- Ragweed plant response rating [7, 28]: 0
- Plant response rating, Ragweed [7, 29]: 0
- Ryegrass, Italian plant response rating [8, 28]: 80
- Plant response rating, Ryegrass, Italian [8, 29]: 70
- Soybean plant response rating [9, 28]: 0
- Plant response rating, Soybean [9, 29]: 0
- Wheat plant response rating [10, 28]: 0
- Plant response rating, Wheat [10, 29]: 0
- Plant response rating, Barnyardgrass ([11]; 500 g ai/ha, postemergence): 20
- Plant response rating, Barnyardgrass ([11]; Postemergence, 125 g ai/ha): 10
- Plant response rating, Blackgrass ([12]; 500 g ai/ha, postemergence): 50
- Plant response rating, Blackgrass ([12]; Postemergence, 125 g ai/ha): 0
- Plant response rating, Corn ([13]; 500 g ai/ha, postemergence): 20
- Plant response rating, Corn ([13]; Postemergence, 125 g ai/ha): 10
- Plant response rating, Foxtail, Green ([14]; 500 g ai/ha, postemergence): 30
- Plant response rating, Foxtail, Green ([14]; Postemergence, 125 g ai/ha): 10
- Plant response rating, Kochia ([15]; 500 g ai/ha, postemergence): 80
- Plant response rating, Kochia ([15]; Postemergence, 125 g ai/ha): 50
- Plant response rating, Oat, Wild ([16]; 500 g ai/ha, postemergence): 20
- Plant response rating, Oat, Wild ([16]; Postemergence, 125 g ai/ha): 10
- Plant response rating, Pigweed, Palmer ([17]; 500 g ai/ha, postemergence): 70
- Plant response rating, Pigweed, Palmer ([17]; Postemergence, 125 g ai/ha): 40
- Plant response rating, Ragweed ([18]; 500 g ai/ha, postemergence): 30
- Plant response rating, Ragweed ([18]; Postemergence, 125 g ai/ha): 20
- Plant response rating, Ryegrass, Italian ([19]; 500 g ai/ha, postemergence): 80
- Plant response rating, Ryegrass, Italian ([19]; Postemergence, 125 g ai/ha): 30
- Plant response rating, Soybean ([20]; 500 g ai/ha, postemergence): 100
- Plant response rating, Soybean ([20]; Postemergence, 125 g ai/ha): 100
- Plant response rating, Wheat ([21]; 500 g ai/ha, postemergence): 20
- Plant response rating, Wheat ([21]; Postemergence, 125 g ai/ha): 10
- Plant response rating, Galium ([22]; 500 g ai/ha, postemergence): 100
- Plant response rating, Galium ([22]; Postemergence, 125 g ai/ha): 90
- Plant response rating, Horseweed ([23]; 500 g ai/ha, postemergence): 40
- Plant response rating, Horseweed ([23]; Postemergence, 125 g ai/ha): 30
- Plant response rating, Barnyardgrass (Flood) [24]: 0
- Plant response rating, Ducksalad (Flood) [25]: 0
- Plant response rating, Rice (Flood) [26]: 0
- Plant response rating, Sedge, Umbrella (Flood) [27]: 0
